The values that follow come from paper PMC10221314 (Pharmaceuticals, 2023).

Where “and” joins values, the source holds several entries; their conditions need not be identical. Equal values may be shown once.

One may read the IC50 as the concentration that gives 50% inhibition. The low end stands for greater potency, the high end for weaker potency.

The test concerns the target T1, FXR (Homo sapiens, UniProt Q96RI1).
T1 construct: a fusion plasmid of Gal4 DBD-NR-LBD, which included PPARα, PPARβ, PPARγ, RXRα, RXRβ, RXRγ, LXRα, LXRβ, GPBAR, PXR, and FXR; expressed in transfected cells; host or cells: HEK-293T
T1 sequence (Q96RI1 262-486 limits assumed): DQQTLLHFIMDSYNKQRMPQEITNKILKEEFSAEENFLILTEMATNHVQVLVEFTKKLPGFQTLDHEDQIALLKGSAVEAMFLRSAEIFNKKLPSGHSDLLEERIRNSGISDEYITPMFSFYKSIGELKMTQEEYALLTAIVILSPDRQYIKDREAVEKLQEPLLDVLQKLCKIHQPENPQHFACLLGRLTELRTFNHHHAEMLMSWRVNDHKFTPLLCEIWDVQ
In words: Yeast one-hybrid assay of FXR antagonistic activity in HEK-293T cells. The test is classed as cell-based. To be noted: HEK-293T cells; CDCA (50 μM) as agonist; mean ± SE of three independent tests. As for the experimental part:
Cell counting: HEK-293T cells in logarithmic growth phase were digested with 0.25% trypsin, collected, and centrifuged. The trypsin-containing medium was discarded, and 2 mL of fresh phenol red-free DMEM medium containing 5% fetal bovine serum was added. The cells were then mixed with the medium to prepare a cell suspension and counted on a cell counting plate.
Cell plating: A determined number of cells were taken from the cell suspension, diluted with phenol red-free DMEM medium containing 5% fetal bovine serum, and plated at a concentration of 10,000 cells per well (100 µL medium) in a 96-well plate. The plate was then incubated at 37 °C and 5% CO2 for 24 h.
Cell transfection: Fresh phenol red-free DMEM medium was taken in a sterile environment, and the previously extracted pFXR-Binding plasmid and PG4.35[luc2P-9XGA4UAS-Hygro] plasmid were added. The mixture was stirred and allowed to stand at 23 °C for 3 min. Then, a 3% amount of transfection reagent was added to the mixture, and it was allowed to stand at 23 °C for 15 min. The mixture was then added to the 96-well plate at a volume of 10 µL per well and incubated at 37 °C in a 5% CO2 environment for 24 h.
The OA derivatives were prepared as 10 mM DMSO stock solutions and further diluted in a concentration gradient, with 10 µL added to each well. The final concentrations of the derivatives ranged from 10 µM to 0.03 µM, with 7 concentration gradients using […] dilution. The test was set with 3 duplicated wells.
Antagonism activity test: The firefly-Renilla Dual Fluorescence Assay Kit (Promega, #E2940, Madison, WI, USA) was used to measure the antagonism activity of the OA derivatives. Firstly, the firefly fluorescence reagent was added to the 96-well plate at a volume of 70 µL per well and shaken in darkness for 15 min. Then, the fluorescence intensity was measured at a wavelength of 645 ± 30 nm in a microplate reader (BioTek, Winooski, VT, USA). Next, the volume of Renilla reagent was added to the 96-well plate at a volume of 70 µL per well and shaken in darkness for 15 min. The fluorescence intensity was then measured at a wavelength of 525 ± 20 nm.
Data processing: The fluorescence data of firefly were divided by the fluorescence data of Renilla to remove errors, and the antagonism efficiency was calculated using the following formula: antagonism efficiency (%) = [1 − (FCompds. − FDMSO)/(FCDCA − FDMSO)] × 100%. In the formula, F represents fluorescence intensity. The antagonistic efficiency data were obtained as a concentration–effect curve using Graphpad Prism 8.0 software, and the corresponding IC50 value was calculated.
`CC(C)COC(=O)C(CCC(=O)OC1CC2C3(C)CCC(O)C(C)(C)C3CCC2(C)C2(C)CCC3(C(=O)O)CCC(C)(C)CC3C12)NC(=O)OC(C)(C)C` [Compound 20e, 3β-hydroxy-12β-(4′-((tert-butoxycarbonyl)amide)-5′-isobutoxy-L-glutamate)oxy-13H-olean-28-oic acid] yielded a concentration for half-maximal inhibition (IC50) of 1000 ± 170 nM.
`CC(C)OC(=O)C(CCC(=O)OC1CC2C3(C)CCC(O)C(C)(C)C3CCC2(C)C2(C)CCC3(C(=O)O)CCC(C)(C)CC3C12)NC(=O)OC(C)(C)C` [Compound 20d, 3β-hydroxy-12β-(4′-((tert-butoxycarbonyl)amide)-5′-isopropoxy-L-glutamate)oxy-13H-olean-28-oic acid] registered an IC50 of 550 ± 90 nM.
Under `CCOC(=O)NC(CCC(=O)OC1CC2C3(C)CCC(O)C(C)(C)C3CCC2(C)C2(C)CCC3(C(=O)O)CCC(C)(C)CC3C12)C(=O)OC(C)(C)C` [Compound 19b, 3β-hydroxy-12β-(4′-((ethoxycarbonyl)amide)-5′-(tert-butoxy)-L-glutamate)oxy-13H-olean-28-oic acid] stands 570 ± 360 nM; under `CCC(C)OC(=O)C(CCC(=O)OC1CC2C3(C)CCC(O)C(C)(C)C3CCC2(C)C2(C)CCC3(C(=O)O)CCC(C)(C)CC3C12)NC(=O)OC(C)(C)C` [Compound 20f, 3β-hydroxy-12β-(4′-((tert-butoxycarbonyl)amide)-5′-(sec-butoxy)-L-glutamate)oxy-13H-olean-28-oic acid], 1010 ± 180 nM.
Under `CC1(C)CC[C@]2(C(=O)O)CC[C@]3(C)[C@H]([C@H](OC(=O)C[C@H](NC(=O)OC(C)(C)C)C(=O)OC(C)(C)C)CC4[C@@]5(C)CC[C@H](O)C(C)(C)C5CC[C@]43C)[C@@H]2C1` (stereo partly drawn) [Compound 9a, 3-hydroxy-12β-(3′-((tert-butoxycarbonyl)amino)-4′-(tert-butoxy)-L-aspartate)oxy-13H-olean-28-oic acid] stands 950 ± 140 nM; under `CC1(C)CC[C@]2(C(=O)O)CC[C@]3(C)[C@H]([C@H](OC(=O)CC[C@H](N)C(=O)O)CC4[C@@]5(C)CC[C@H](O)C(C)(C)C5CC[C@]43C)[C@@H]2C1` (stereo partly drawn) [Compound 11c, 3-hydroxy-12β-((S)-4′-amino-4′-carboxybutanoyl)oxy-13H-olean-28-oic acid], 21300 ± 2600 nM; under `CC1(C)CC[C@]2(C(=O)O)CC[C@]3(C)[C@H]([C@H](OC(=O)CC[C@H](NC(=O)OC(C)(C)C)C(=O)O)CC4[C@@]5(C)CC[C@H](O)C(C)(C)C5CC[C@]43C)[C@@H]2C1` (stereo partly drawn) [Compound 11b, 3-hydroxy-12β-((S)-4′-((tert-butoxycarbonyl)amino)-4′-carboxybutanoyl)oxy-13H-olean-28-oic acid], 7650 ± 350 nM.
Then `CC1(C)CC[C@]2(C(=O)O)CC[C@]3(C)[C@H]([C@H](OC(=O)CC[C@H](N)C(=O)OC(C)(C)C)CC4[C@@]5(C)CC[C@H](O)C(C)(C)C5CC[C@]43C)[C@@H]2C1` (stereo partly drawn) [Compound 11a, 3-hydroxy-12β-((S)-4′-amino-5′-(tert-butoxy)-5-oxopentanoyl)oxy-13H-olean-28-oic acid], with 2950 ± 680 nM; and `CCOC(=O)C(CCC(=O)OC1CC2C3(C)CCC(O)C(C)(C)C3CCC2(C)C2(C)CCC3(C(=O)O)CCC(C)(C)CC3C12)NC(=O)OC(C)(C)C` [Compound 20b, 3β-hydroxy-12β-(4′-((tert-butoxycarbonyl)amide)-5′-ethoxy-L-glutamate)oxy-13H-olean-28-oic acid], with 1020 ± 210 nM.
`CCC(C)OC(=O)NC(CCC(=O)OC1CC2C3(C)CCC(O)C(C)(C)C3CCC2(C)C2(C)CCC3(C(=O)O)CCC(C)(C)CC3C12)C(=O)OC(C)(C)C` [Compound 19f, 3β-hydroxy-12β-(4′-((sec-butoxycarbonyl)amide)-5′-(tert-butoxy)-L-glutamate)oxy-13H-olean-28-oic acid] had an IC50 of 600 ± 40 nM.
Then `CC1(C)CCC2(C(=O)O)CCC3(C)C(C(OC(=O)CCC(NC(=O)Oc4ccccc4)C(=O)OC(C)(C)C)CC4C5(C)CCC(O)C(C)(C)C5CCC43C)C2C1` [Compound 19h, 3β-hydroxy-12β-(4′-((phenoxycarbonyl)amide)-5′-(tert-butoxy)-L-glutamate)oxy-13H-olean-28-oic acid], with 2220 nM and 2180 nM; and `COC(=O)NC(CCC(=O)OC1CC2C3(C)CCC(O)C(C)(C)C3CCC2(C)C2(C)CCC3(C(=O)O)CCC(C)(C)CC3C12)C(=O)OC(C)(C)C` [Compound 19a, 3β-hydroxy-12β-(4′-((methoxycarbonyl)amide)-5′-(tert-butoxy)-L-glutamate)oxy-13H-olean-28-oic acid], with 550 ± 220 nM; and `COC(=O)C(CCC(=O)OC1CC2C3(C)CCC(O)C(C)(C)C3CCC2(C)C2(C)CCC3(C(=O)O)CCC(C)(C)CC3C12)NC(=O)OC(C)(C)C` [Compound 20a, 3β-hydroxy-12β-(4′-((tert-butoxycarbonyl)amide)-5′-methoxy-L-glutamate)oxy-13H-olean-28-oic acid], with 1100 ± 190 nM.
Under `CC1(C)CCC2(C(=O)O)CCC3(C)C(C(OC(=O)CCC(NC(=O)OC4CCCC4)C(=O)OC(C)(C)C)CC4C5(C)CCC(O)C(C)(C)C5CCC43C)C2C1` [Compound 19g, 3β-hydroxy-12β-(4′-(((cyclopentyloxy)carbonyl)amide)-5′-(tert-butoxy)-L-glutamate)oxy-13H-olean-28-oic acid] stands 720 ± 180 nM.
Turning to `CCCOC(=O)NC(CCC(=O)OC1CC2C3(C)CCC(O)C(C)(C)C3CCC2(C)C2(C)CCC3(C(=O)O)CCC(C)(C)CC3C12)C(=O)OC(C)(C)C` [Compound 19c, 3β-hydroxy-12β-(4′-((propoxycarbonyl)amide)-5′-(tert-butoxy)-L-glutamate)oxy-13H-olean-28-oic acid], the half-inhibitory concentration (IC50) was 400 to 500 nM and 450 nM.
Under `CC1(C)CC[C@]2(C(=O)O)CC[C@]3(C)[C@H]([C@H](OC(=O)C[C@@H](NC(=O)OC(C)(C)C)C(=O)OC(C)(C)C)CC4[C@@]5(C)CC[C@H](O)C(C)(C)C5CC[C@]43C)[C@@H]2C1` (stereo partly drawn) [Compound 9b, 3-hydroxy-12β-(3′-((tert-butoxycarbonyl)amino)-4′-(tert-butoxy)-D-aspartate)oxy-13H-olean-28-oic acid] stands 2390 ± 350 nM.
As for `CC1(C)CC[C@]2(C(=O)O)CC[C@]3(C)[C@H]([C@H](OC(=O)CC[C@@H](NC(=O)OC(C)(C)C)C(=O)OC(C)(C)C)CC4[C@@]5(C)CC[C@H](O)C(C)(C)C5CC[C@]43C)[C@@H]2C1` (stereo partly drawn) [Compound 10a, 3-hydroxy-12β-(4′-((tert-butoxycarbonyl)amino)-5′-(tert-butoxy)-D-glutamate)oxy-13H-olean-28-oic acid], the half-inhibitory concentration (IC50) came to 1950 ± 270 nM.
Under `CC1(C)CC[C@]2(C(=O)O)CC[C@]3(C)[C@H]([C@H](OC(=O)C[C@@H](CC(=O)OC(C)(C)C)NC(=O)OC(C)(C)C)CC4[C@@]5(C)CC[C@H](O)C(C)(C)C5CC[C@]43C)[C@@H]2C1` (stereo partly drawn) [Compound 10c, 3-hydroxy-12β-((S)-3′-((tert-butoxycarbonyl)amino)-5′-(tert-butoxy)-5-oxopentanoyl)oxy-13H-olean-28-oic acid] stands 1340 ± 230 nM.
As to `CC(C)COC(=O)NC(CCC(=O)OC1CC2C3(C)CCC(O)C(C)(C)C3CCC2(C)C2(C)CCC3(C(=O)O)CCC(C)(C)CC3C12)C(=O)OC(C)(C)C` [Compound 19e, 3β-hydroxy-12β-(4′-((isobutoxycarbonyl)amide)-5′-(tert-butoxy)-L-glutamate)oxy-13H-olean-28-oic acid], the half-maximal inhibitory concentration (IC50) was 920 ± 140 nM.
Then `CCCOC(=O)C(CCC(=O)OC1CC2C3(C)CCC(O)C(C)(C)C3CCC2(C)C2(C)CCC3(C(=O)O)CCC(C)(C)CC3C12)NC(=O)OC(C)(C)C` [Compound 20c, 3β-hydroxy-12β-(4′-((tert-butoxycarbonyl)amide)-5′-propoxy-L-glutamate)oxy-13H-olean-28-oic acid], with 560 ± 130 nM; and `CC1(C)CC[C@]2(C(=O)O)CC[C@]3(C)[C@H]([C@H](OC(=O)[C@@H](CCC(=O)OC(C)(C)C)NC(=O)OC(C)(C)C)CC4[C@@]5(C)CC[C@H](O)C(C)(C)C5CC[C@]43C)[C@@H]2C1` (stereo partly drawn) [Compound 10d, 3-hydroxy-12β-(2′-((tert-butoxycarbonyl)amino)-5′-(tert-butoxy)-D-glutamate)oxy-13H-olean-28-oic acid], with 3670 ± 390 nM.
